Like-named read-outs stand apart in the source and are kept apart here.
Legend:
SW620 cells [1] = assay: Cell viability, sulforhodamine B (SRB) assay; format: cell-based, human; settings: Homo sapiens
Method: (§1) SW480 (colon adenocarcinoma) and SW620 (derived metastatic) malignant cell lines, and the non-malignant lines HaCaT (human keratinocytes) and CHO-K1 (Chinese Hamster Ovary), were obtained from the European Collection of Authenticated Cell Cultures (ECACC, Porton Down, Salisbury, UK). The cells were maintained in Dulbecco’s Modified Eagle’s Medium (DMEM), supplemented with 10% equine serum previously inactivated at 56 °C, 1% penicillin/streptomycin, and 1% non-essential amino acids, and incubated at 37 °C in an atmosphere with 5% CO2. To carry out the experiments, the serum was diluted to 3% and additionally supplemented with […] insulin, […] transferrin, and 5 ng/mL selenium. Cells were used for experimentation when they reached 80–90% confluence, using a 1X trypsin enzymatic disintegration method. To avoid contamination by Mycoplasma spp., cell cultures were periodically analyzed by polymerase chain reaction (PCR).
(§2) Cell viability was evaluated with a sulforhodamine B (SRB) assay. This technique provides an index of protein contents in living and adherent cells, whose optical density can be related to cell concentration. Initially, 20,000 cells were seeded per well in 96-well culture plates. An initial adherence period of 24 h was performed at 37 °C, 5% CO2, and after this, the medium was replaced by another that contained the hybrid compounds in different concentrations. Then, the cells were left incubating for 24 and 48 h under the same conditions previously described. After the respective incubation times, the cells were fixed with trichloroacetic acid (50% v/v) for 1 h at 4 °C and stained with 0.4% (p/v) of SRB. Subsequently, washings with 1% acetic acid were carried out to eliminate possible nonspecific bindings, and after solubilization with 10 mM Tris-base, the absorbance was read at 492 nm in a microplate reader (Mindray MR-96A). All the experiments were carried out in triplicate.

CHO-K1 cells = assay: Cell viability, sulforhodamine B (SRB) assay, non-malignant cells; format: cell-based, Chinese Hamster; settings: Cricetulus griseus
Method: as §1, §2

SW620 cells [2] = assay: Antiproliferative activity (SRB, 0-8 days); format: cell-based, human; settings: for viability at 1.25 µM / viability at 20 µM: Homo sapiens, read-out: Cell Viability (%) ± SE; for viability at 1.25 µM: SW620, 1.25 µM; for viability at 20 µM: SW620, 20 µM
Method: For this experiment, the same colorimetric method (SRB) from the evaluation of cell viability was used, although with some modifications. Initially, 2500 cells per well were seeded in 96-well culture plates, and a 24 h adherence period was performed at 37 °C in a 5% CO2 atmosphere. […] For this assay, incubation periods of 0, 2, 4, 6, and 8 days were used, and the fixation, staining, and reading conditions were the same as those previously described for the cytotoxicity assay.

[3] = SW-620, 48 h, 2 days after plating
[4] = SW-620, 96 h, 4 days after plating
[5] = SW-620, 144 h, 6 days after plating
[6] = SW-620, 192 h, 8 days after plating

COc1cc(/C=C/C(=O)c2ccc(OCCCCCn3cc(Cn4cc(F)c(=O)[nH]c4=O)nn3)cc2)ccc1O [Compound 6d, (E)-5-fluoro-1-((1-(5-(4-(3-(4-hydroxy-3-methoxyphenyl)acryloyl)phenoxy)pentyl)-1H-1,2,3-triazol-4-yl)methyl)pyrimidine-2,4(1H,3H)-dione]
IC50 (SW620 cells [1]; SW-620, 24 h, 24 h): 37.1 ± 3.05 µM | IC50 (SW620 cells [1]; SW-620, 48 h, 48 h): 7.51 ± 1.47 µM | IC50 (CHO-K1 cells; CHO-K1, 24 h): 12.4 ± 1.34 µM | IC50 (CHO-K1 cells; CHO-K1, 48 h): 28.1 ± 1.95 µM | viability at 1.25 µM (SW620 cells [2]; [3]): 91 ± 2.85% | viability at 20 µM (SW620 cells [2]; [3]): 42.5 ± 4.57% | viability at 1.25 µM (SW620 cells [2]; [4]): 85.2 ± 3.23% | viability at 20 µM (SW620 cells [2]; [4]): 7.1 ± 0.95% | viability at 1.25 µM (SW620 cells [2]; [5]): 67.3 ± 2.32% | viability at 20 µM (SW620 cells [2]; [5]): 0% | viability at 1.25 µM (SW620 cells [2]; [6]): 54.4 ± 2.76% | viability at 20 µM (SW620 cells [2]; [6]): 0% | inhibition percentages (decrease in cell viability) (SW620 cells [2]; SW620, from 5 µM, day 2): higher than 30%
